Source: patent US20120277161A1, “INHIBITION OF MULTIPLE CELL ACTIVATION PATHWAYS” (INTER-K PTY LIMITED, priority 2009, published 2012)
Values belong to the molecule of their own block, whether it stands above or below them.

Tests used:
human ERK2 = human ERK2 (Homo sapiens, UniProt P28482); assay: ERK2 kinase activity assay (cell-free); type: biochemical
Experimental: (§1) In a final reaction volume of 25 μL, human ERK2 (5-10 mU) is incubated with 25 mM Tris pH 7.5, 0.02 mM EGTA, 0.33 mg/mL myelin basic protein, 10 mM MgAcetate and [γ-33P-ATP] (specific activity approx. 500 cpm/pmol, concentration as required). The reaction is initiated by the addition of the MgATP mix. After incubation for 40 minutes at room temperature, the reaction is stopped by the addition of 5 μL of a 3% phosphoric acid solution. 10 μL of the reaction is then spotted onto a P30 filtermat and washed three times for 5 minutes in 75 mM phosphoric acid and once in methanol prior to drying and scintillation counting.

c-RAF (h) = c-RAF (h) (Homo sapiens, UniProt P04049); assay: c-RAF kinase activity assay; type: biochemical
Experimental: as §1, with “c-RAF (h)” for “human ERK2”, “0.66” for “0.33”

MEK1 (h) = MEK1 (h) (Homo sapiens, UniProt Q02750); assay: MEK1 kinase activity assay; type: biochemical
Experimental: The reaction is initiated by the addition of the MgATP. After incubation for 40 minutes at room temperature, 5 μL of this incubation mix is used to initiate an ERK2 (m) assay.

PKB beta = PKB beta (Homo sapiens, UniProt P31751); assay: PKB kinase activity assay; type: biochemical
Experimental: (§2) In a final reaction volume of 25 μL, PKB(h) (5-10 mU) is incubated with 8 mM MOPS pH 7.0, 0.2 mM EDTA, 30 μM GRPRTSSFAEGKK (SEQ ID No. 26), 10 mM MgAcetate and [γ-33P-ATP] (specific activity approx. 500 cpm/pmol, concentration as required). The reaction is initiated by the addition of the MgATP mix. After incubation for 40 minutes at room temperature, the reaction is stopped by the addition of 5 μL of a 3% phosphoric acid solution. 10 μL of the reaction mixture is then spotted onto a P30 filtermat and washed three times for 5 minutes in 75 mM phosphoric acid and once in methanol prior to drying and scintillation counting.

PKB gamma = PKB gamma (Homo sapiens, UniProt Q9Y243); assay: PKB kinase activity assay; type: biochemical
Experimental: as §2

[1] = system: HT29 human colon cancer cells; assay: Cell proliferation (MTT) assay, HT29 cells; type: cell-based; conditions: MTT, 48 hours
Experimental: 6.1 Cell Proliferation (MTT) Assay Single cell suspensions of viable trypsinised cells were seeded into 96-well tissue culture plates at a density of 2×10^3 cells per well in a volume of 100 μl of a suitable culture media supplemented with heat inactivated foetal calf serum (FCS) (e.g., Dulbecco's Modified Eagles Medium (DMEM), with 10% v/v FCS, 1% L-glutamine, 2% (v/v) Hepes, and antibiotics). A set of triplicate wells was prepared for each concentration of the peptide dendrimer being tested. Additional sample wells containing untreated cells or media alone were set up in each treatment plate and processed in parallel as reference controls. A zero-time plate of untreated cells and media-alone wells was simultaneously prepared and an MTT assay carried out on this plate at the time of addition of the kinase inhibitor (i.e., polypeptide or dendrimer) to treatment plates. All plates were cultured for 24 hours before addition of the test dendrimer.
To prepare the MTT solution 100 mg of MTT (3-(4,5-dimethylthiazolyl-2)-2,5-diphenyltetrazolium bromide) (Cat #. M-128, Sigma, St Louis Mo.), is mixed with 20 ml of PBS at pH 7.4. The resulting solution is filter sterilized (0.2 μM syringe filter) and stored at 4° C. protected from light until use. MTT substrate is cleaved in growing cells to yield a water insoluble salt. After solubilisation of the salt crystals, a coloured product is produced the measurement of which allows quantitation of the proliferative activity of the cultured cells.
Appropriate concentrations of the kinase inhibitor were prepared by dilution of freshly prepared sterile 1 mM stock solutions into cell culture media to give a final well volume of 200 μl containing 10% v/v FCS. The zero-plate was processed by addition of MTT at this time. Cell culture was continued for a further 24 or 48 hours before addition of 20 μl of MTT in PBS (5 mg/ml, 0.2 um filter sterilised). The MTT cell proliferation assay measures cell proliferation rate and, in instances where cell viability is compromised, the assay indicates a comparative reduction in cell viability. After a 3 hour incubation in the presence of MTT (5% CO2 in air at 37° C.), plates were centrifuged at 450 g for 5 minutes, supernatant was removed by gentle suction and precipitated tetrazolium salt resuspended into 150 μl DMSO:glycine (0.1M glycine, 0.1M NaCl pH 10.5) (6:1 v/v) solution. Plates were gently vortexed to complete solubilisation of crystalline material and absorbance was read at 550 nm using a microplate reader. Sample data were processed to determine the comparative growth of treated samples relative to untreated controls.
HT29 cells were cultured for 48 hours in the presence of selected dendrimers and proliferation of the cells was assessed by MTT assay essentially as described in Example 6.1. The results were calculated as percentage proliferation of control cells (not treated with dendrimer).

Sequence of PKB beta (P31751 whole entry): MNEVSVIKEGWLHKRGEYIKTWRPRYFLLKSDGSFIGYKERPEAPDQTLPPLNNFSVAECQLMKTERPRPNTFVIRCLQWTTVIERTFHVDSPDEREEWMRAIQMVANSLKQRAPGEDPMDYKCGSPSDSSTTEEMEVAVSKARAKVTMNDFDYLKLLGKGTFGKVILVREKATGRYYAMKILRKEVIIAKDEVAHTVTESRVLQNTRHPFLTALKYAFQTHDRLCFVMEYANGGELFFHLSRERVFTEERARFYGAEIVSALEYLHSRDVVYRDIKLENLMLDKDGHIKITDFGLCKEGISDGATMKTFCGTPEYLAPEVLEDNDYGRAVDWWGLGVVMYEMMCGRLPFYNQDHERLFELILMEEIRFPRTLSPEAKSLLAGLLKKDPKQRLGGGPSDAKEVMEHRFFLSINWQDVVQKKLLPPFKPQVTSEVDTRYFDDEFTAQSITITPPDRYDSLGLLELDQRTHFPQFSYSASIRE
Sequence of PKB gamma (Q9Y243 whole entry): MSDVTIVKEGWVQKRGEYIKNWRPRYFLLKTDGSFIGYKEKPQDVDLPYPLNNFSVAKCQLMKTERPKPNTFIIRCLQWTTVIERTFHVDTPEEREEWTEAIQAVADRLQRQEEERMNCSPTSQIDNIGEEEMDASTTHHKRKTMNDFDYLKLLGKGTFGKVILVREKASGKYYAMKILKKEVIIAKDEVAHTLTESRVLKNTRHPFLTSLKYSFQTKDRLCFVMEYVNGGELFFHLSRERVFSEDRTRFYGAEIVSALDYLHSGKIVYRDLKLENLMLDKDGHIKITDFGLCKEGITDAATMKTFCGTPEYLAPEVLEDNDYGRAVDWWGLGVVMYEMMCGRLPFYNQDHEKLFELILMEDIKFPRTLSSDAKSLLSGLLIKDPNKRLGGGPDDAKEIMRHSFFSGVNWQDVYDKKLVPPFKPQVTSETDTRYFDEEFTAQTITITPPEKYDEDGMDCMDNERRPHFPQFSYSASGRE
Sequence of human ERK2 (P28482 whole entry): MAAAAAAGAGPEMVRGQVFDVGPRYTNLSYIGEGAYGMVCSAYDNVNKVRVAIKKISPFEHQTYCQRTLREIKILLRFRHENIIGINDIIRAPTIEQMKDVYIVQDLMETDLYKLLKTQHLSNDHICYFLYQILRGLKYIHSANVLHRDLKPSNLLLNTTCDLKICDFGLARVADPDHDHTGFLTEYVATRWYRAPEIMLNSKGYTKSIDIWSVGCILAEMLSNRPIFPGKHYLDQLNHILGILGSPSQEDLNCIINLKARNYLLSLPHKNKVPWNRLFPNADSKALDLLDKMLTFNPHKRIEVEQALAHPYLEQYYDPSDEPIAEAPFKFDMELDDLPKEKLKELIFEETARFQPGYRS

Molecule: CC(C)C[C@H](NC(=O)[C@@H]1CCCN1C(=O)[C@H](CC(N)=O)NC(=O)[C@H](CCCCN)NC(=O)[C@H](C)NC(=O)[C@H](CCCCN)NC(=O)[C@H](CO)NC(=O)[C@@H](N)CCCNC(=N)N)C(=O)N[C@@H](Cc1ccc(O)cc1)C(=O)N[C@@H](CCCNC(=N)N)C(=O)NCCCC[C@H](NC(=O)[C@H](CCCCNC(=O)[C@H](CCCCNC(=O)[C@H](CCCNC(=N)N)NC(=O)[C@H](Cc1ccc(O)cc1)NC(=O)[C@H](CC(C)C)NC(=O)[C@@H]1CCCN1C(=O)[C@H](CC(N)=O)NC(=O)[C@H](CCCCN)NC(=O)[C@H](C)NC(=O)[C@H](CCCCN)NC(=O)[C@H](CO)NC(=O)[C@@H](N)CCCNC(=N)N)NC(=O)[C@H](CCCNC(=N)N)NC(=O)[C@H](Cc1ccc(O)cc1)NC(=O)[C@H](CC(C)C)NC(=O)[C@@H]1CCCN1C(=O)[C@H](CC(N)=O)NC(=O)[C@H](CCCCN)NC(=O)[C@H](C)NC(=O)[C@H](CCCCN)NC(=O)[C@H](CO)NC(=O)[C@@H](N)CCCNC(=N)N)NC(=O)[C@H](CCCCNC(=O)[C@H](CCCNC(=N)N)NC(=O)[C@H](Cc1ccc(O)cc1)NC(=O)[C@H](CC(C)C)NC(=O)[C@@H]1CCCN1C(=O)[C@H](CC(N)=O)NC(=O)[C@H](CCCCN)NC(=O)[C@H](C)NC(=O)[C@H](CCCCN)NC(=O)[C@H](CO)NC(=O)[C@@H](N)CCCNC(=N)N)NC(=O)[C@H](CCCNC(=N)N)NC(=O)[C@H](Cc1ccc(O)cc1)NC(=O)[C@H](CC(C)C)NC(=O)[C@@H]1CCCN1C(=O)[C@H](CC(N)=O)NC(=O)[C@H](CCCCN)NC(=O)[C@H](C)NC(=O)[C@H](CCCCN)NC(=O)[C@H](CO)NC(=O)[C@@H](N)CCCNC(=N)N)C(=O)NCCCC[C@H](NC(=O)[C@H](CCCCNC(=O)[C@H](CCCNC(=N)N)NC(=O)[C@H](Cc1ccc(O)cc1)NC(=O)[C@H](CC(C)C)NC(=O)[C@@H]1CCCN1C(=O)[C@H](CC(N)=O)NC(=O)[C@H](CCCCN)NC(=O)[C@H](C)NC(=O)[C@H](CCCCN)NC(=O)[C@H](CO)NC(=O)[C@@H](N)CCCNC(=N)N)NC(=O)[C@H](CCCCNC(=O)[C@H](CCCCNC(=O)[C@H](CCCNC(=N)N)NC(=O)[C@H](Cc1ccc(O)cc1)NC(=O)[C@H](CC(C)C)NC(=O)[C@@H]1CCCN1C(=O)[C@H](CC(N)=O)NC(=O)[C@H](CCCCN)NC(=O)[C@H](C)NC(=O)[C@H](CCCCN)NC(=O)[C@H](CO)NC(=O)[C@@H](N)CCCNC(=N)N)NC(=O)[C@H](CCCNC(=N)N)NC(=O)[C@H](Cc1ccc(O)cc1)NC(=O)[C@H](CC(C)C)NC(=O)[C@@H]1CCCN1C(=O)[C@H](CC(N)=O)NC(=O)[C@H](CCCCN)NC(=O)[C@H](C)NC(=O)[C@H](CCCCN)NC(=O)[C@H](CO)NC(=O)[C@@H](N)CCCNC(=N)N)NC(=O)[C@H](CCCCNC(=O)[C@H](CCCNC(=N)N)NC(=O)[C@H](Cc1ccc(O)cc1)NC(=O)[C@H](CC(C)C)NC(=O)[C@@H]1CCCN1C(=O)[C@H](CC(N)=O)NC(=O)[C@H](CCCCN)NC(=O)[C@H](C)NC(=O)[C@H](CCCCN)NC(=O)[C@H](CO)NC(=O)[C@@H](N)CCCNC(=N)N)NC(=O)[C@H](CCCNC(=N)N)NC(=O)[C@H](Cc1ccc(O)cc1)NC(=O)[C@H](CC(C)C)NC(=O)[C@@H]1CCCN1C(=O)[C@H](CC(N)=O)NC(=O)[C@H](CCCCN)NC(=O)[C@H](C)NC(=O)[C@H](CCCCN)NC(=O)[C@H](CO)NC(=O)[C@@H](N)CCCNC(=N)N)C(=O)NCCC(N)=O [Dend 10-10(4)]
remaining activity at 50 µM (human ERK2; final concentration 50 μM, read-out: ERK2 % activity relative to control): 47%
inhibition at 1 µM (c-RAF (h); dendrimer conc. 1 μM, read-out: Percentage (%) kinase inhibition c-RAF): 71%
inhibition at 1 µM (MEK1 (h); dendrimer conc. 1 μM, read-out: Percentage (%) kinase inhibition MEK1): 83%
inhibition at 1 µM (PKB beta; dendrimer conc. 1 μM, read-out: Percentage (%) kinase inhibition PKB beta): 70%
inhibition at 1 µM (PKB gamma; dendrimer conc. 1 μM, read-out: Percentage (%) kinase inhibition PKB gamma): 99%
dendrimer concentration required for total kill, HT29 cells [1]: 10 µM
inhibition of proliferation of HT29 cells [1]: inhibited

% Kinase inhibition ERK2 (human ERK2; 20 μM, relative to control): 37%
% Kinase inhibition c-RAF (c-RAF (h); 20 μM, relative to control): 93%
Percentage (%) kinase inhibition c-RAF (c-RAF (h); dendrimer conc. 1 μM): 79%
Percentage (%) kinase inhibition c-RAF (c-RAF (h); dendrimer conc. 2 μM): 81%
Percentage (%) kinase inhibition c-RAF (c-RAF (h); dendrimer conc. 250 nm): 64%
Percentage (%) kinase inhibition c-RAF (c-RAF (h); dendrimer conc. 500 nm): 74%
% Kinase inhibition MEK1 (MEK1 (h); 20 μM, relative to control): 90%
Percentage (%) kinase inhibition MEK1 (MEK1 (h); dendrimer conc. 1 μM): 76%
Percentage (%) kinase inhibition MEK1 (MEK1 (h); dendrimer conc. 2 μM): 88%
Percentage (%) kinase inhibition MEK1 (MEK1 (h); dendrimer conc. 250 nm): 2%
Percentage (%) kinase inhibition MEK1 (MEK1 (h); dendrimer conc. 500 nm): 34%
% Kinase inhibition PKB beta (PKB beta; 20 μM, relative to control): 85%
Percentage (%) kinase inhibition PKB beta (PKB beta; dendrimer conc. 1 μM): 68%
Percentage (%) kinase inhibition PKB beta (PKB beta; dendrimer conc. 2 μM): 70%
Percentage (%) kinase inhibition PKB beta (PKB beta; dendrimer conc. 250 nm): 53%
Percentage (%) kinase inhibition PKB beta (PKB beta; dendrimer conc. 500 nm): 66%
% Kinase inhibition PKB gamma (PKB gamma; 20 μM, relative to control): 96%
Percentage (%) kinase inhibition PKB gamma (PKB gamma; dendrimer conc. 1 μM): 93%
Percentage (%) kinase inhibition PKB gamma (PKB gamma; dendrimer conc. 2 μM): 92%
Percentage (%) kinase inhibition PKB gamma (PKB gamma; dendrimer conc. 250 nm): 94%
Percentage (%) kinase inhibition PKB gamma (PKB gamma; dendrimer conc. 500 nm): 98%
Molecule: Dend 10-10(4) whose RSKAKNPLYR peptides are entirely D-amino acids and pegylated with two ethylene glycol units [Dend 10-10(4)DP]
inhibition of proliferation of HT29 cells [1]: substantially greater inhibition of proliferation
